Reference: patent publication US11235022B2, “Methods of diagnosis, selection, and treatment of diseases and conditions caused by or associated with methanogens” (Cedars-Sinai Medical Center, priority 2013, dated 2022)

What was measured:
[1] = tested on: small bowel motility / small intestinal transit; conditions: cited from earlier work
[2] = tested on: methane on breath testing; constipation symptoms; conditions: retrospective study; 10 days; cited from earlier work
[3] = Example 4A: glucose tolerance test and cholesterol before and after antibiotic in single patients; assay type: in vivo, human
Experimental: After an administration of rifaximin at 550 mg, three times a day, the peak glucose was 161 mg/dL. Cholesterol for the same patient was 200 and then 171 after treatment. […] After an administration of neomycin at 500 mg, twice daily, the peak glucose was 121. Cholesterol was 202 before the treatment and was down to 178 after treatment.

[4] = tested on: methane producers with constipation predominant IBS; conditions: placebo 5.0±5.1%; cited from earlier work

Row | Compound | reduction of proximal small bowel motility (average) ([1]; 5 dogs, methane infused through mid-small bowel fistula) [%] | slowing of small intestinal transit ([1]; in vivo animal study, infusion of methane into the small intestine) [%] | reduction in constipation symptoms [2] [%] | reduction in methane [2] [%] | cholesterol after treatment ([3]; Patient 1, rifaximin 550 mg three times a day, 200 before) | peak glucose on glucose tolerance test after treatment ([3]; Patient 1, rifaximin 550 mg three times a day, 260 before antibiotics) [mg/dL] | peak glucose on glucose tolerance test after treatment ([3]; Patient 2, neomycin 500 mg twice daily, 154 before antibiotics) | cholesterol after treatment ([3]; Patient 2, neomycin 500 mg twice daily, 202 before) | improvement in constipation [4] [%]
1 | C [methane] | 59 | 59 |  |  |  |  |  |  | 
2 | CO[C@H]1/C=C/O[C@@]2(C)Oc3c(C)c(O)c4c(O)c(c5c(nc6cc(C)ccn65)c4c3C2=O)NC(=O)/C(C)=C\C=C\[C@H](C)[C@H](O)[C@@H](C)[C@@H](O)[C@@H](C)[C@H](OC(C)=O)[C@@H]1C [rifaximin] |  |  | 56 | 28 | 171 | 161 |  |  | 
3 | neomycin |  |  | 63 | 33 |  |  | 121 | 178 | 44.0±12.3
